According to publication PMC5501398 (PLoS ONE, 2017):

Molecular target: T1, VcIIPK (Vibrio cholerae, UniProt Q9KQJ0)
T1 construct: gene VC_2008
Assay: biochemical

T1 sequence (Q9KQJ0 1-481 limits assumed): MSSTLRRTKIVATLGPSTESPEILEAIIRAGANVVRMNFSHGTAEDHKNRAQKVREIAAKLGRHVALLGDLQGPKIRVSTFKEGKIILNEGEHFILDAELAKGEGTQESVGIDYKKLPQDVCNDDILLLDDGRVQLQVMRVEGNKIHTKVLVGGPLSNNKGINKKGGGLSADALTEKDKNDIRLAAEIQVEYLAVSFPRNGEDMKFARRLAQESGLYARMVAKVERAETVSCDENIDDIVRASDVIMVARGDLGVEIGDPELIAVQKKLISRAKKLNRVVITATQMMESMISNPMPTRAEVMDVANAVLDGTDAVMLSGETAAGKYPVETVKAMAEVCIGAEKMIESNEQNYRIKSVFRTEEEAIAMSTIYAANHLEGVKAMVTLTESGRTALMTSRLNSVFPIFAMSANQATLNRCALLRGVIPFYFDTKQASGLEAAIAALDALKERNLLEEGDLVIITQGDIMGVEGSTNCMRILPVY

O=C(O)C(=O)O [oxalate]
Ki: 71 ± 6 µM
